pIC50: −log10 of the molar value.

For one series, the target named is T1, P2X purinoceptor 3 (Rattus norvegicus, UniProt P49654).
T1 sequence (P49654 whole entry): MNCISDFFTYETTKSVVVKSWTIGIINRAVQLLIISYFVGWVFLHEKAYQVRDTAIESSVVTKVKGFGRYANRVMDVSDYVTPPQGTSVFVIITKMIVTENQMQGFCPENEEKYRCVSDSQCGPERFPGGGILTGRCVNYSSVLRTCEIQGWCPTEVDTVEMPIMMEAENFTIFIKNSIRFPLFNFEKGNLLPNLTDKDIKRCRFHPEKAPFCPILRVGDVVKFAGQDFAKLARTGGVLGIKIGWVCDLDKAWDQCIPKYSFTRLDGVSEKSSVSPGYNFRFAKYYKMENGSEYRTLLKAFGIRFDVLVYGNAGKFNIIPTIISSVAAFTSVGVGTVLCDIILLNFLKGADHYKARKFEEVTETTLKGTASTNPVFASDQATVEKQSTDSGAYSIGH
Briefly: Antagonist activity at rat P2X3 receptor expressed in CHO cells by FLIPR. The class given is functional, cell-based. The conditions noted are these: for IC50: read-out: pIC50 (converted).

The target of series [1] is T2, P2X2/P2X3 heterotrimeric receptor (Homo sapiens, UniProt P56373+Q9UBL9).
T2 sequence (Q9UBL9 whole entry): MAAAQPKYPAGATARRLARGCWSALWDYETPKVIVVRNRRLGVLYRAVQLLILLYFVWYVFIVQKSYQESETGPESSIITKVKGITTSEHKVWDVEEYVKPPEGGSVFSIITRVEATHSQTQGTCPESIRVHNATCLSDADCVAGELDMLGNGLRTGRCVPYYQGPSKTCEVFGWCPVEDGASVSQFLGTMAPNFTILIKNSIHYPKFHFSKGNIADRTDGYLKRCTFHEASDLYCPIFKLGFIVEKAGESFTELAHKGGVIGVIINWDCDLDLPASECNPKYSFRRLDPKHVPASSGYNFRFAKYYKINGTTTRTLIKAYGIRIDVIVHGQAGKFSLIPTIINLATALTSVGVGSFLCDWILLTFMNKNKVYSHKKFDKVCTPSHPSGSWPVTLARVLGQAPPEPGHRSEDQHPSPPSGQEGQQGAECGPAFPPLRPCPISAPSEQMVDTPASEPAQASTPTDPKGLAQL
T2 sequence (P56373 whole entry): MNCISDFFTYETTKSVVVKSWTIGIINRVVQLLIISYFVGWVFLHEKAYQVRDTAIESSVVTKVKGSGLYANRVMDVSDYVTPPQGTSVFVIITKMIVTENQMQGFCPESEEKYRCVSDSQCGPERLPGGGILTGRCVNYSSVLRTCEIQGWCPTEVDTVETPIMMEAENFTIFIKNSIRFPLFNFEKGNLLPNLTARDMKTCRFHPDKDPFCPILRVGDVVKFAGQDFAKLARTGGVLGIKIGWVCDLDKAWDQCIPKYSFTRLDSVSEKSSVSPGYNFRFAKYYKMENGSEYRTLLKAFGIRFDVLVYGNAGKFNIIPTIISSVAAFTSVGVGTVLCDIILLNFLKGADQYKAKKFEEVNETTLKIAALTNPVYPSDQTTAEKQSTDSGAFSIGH
The series is described as follows: Antagonist activity at human P2X2/3 receptor expressed in 1321n1c cells by FLIPR. The class given is functional, cell-based. The conditions noted are these: for IC50: read-out: pIC50 (converted).

Series [2] can be described thus: Oral bioavailability in dog. It is filed as ADME, organism-based, Canis lupus familiaris. The conditions noted are these: in vivo.
A further series concerns Rattus norvegicus. Briefly: Clearance in rat at 2 mg/kg, iv administered as single dose. Also noted: dose 2 mg/kg, route intravenous. The following applies: in vivo. It is filed as ADME, organism-based.
Series [3] in a line: Tmax in rat at 2 mg/kg, iv administered as single dose. It is filed as ADME, organism-based. Also noted: dose 2 mg/kg, route intravenous. The following applies: in vivo.
The nature of series [4]: Half life in rat at 2 mg/kg, iv administered as single dose. It is filed as ADME, organism-based. The conditions noted are these: in vivo. Also noted: dose 2 mg/kg, route intravenous.
A short description of series [5]: Cmax in rat at 2 mg/kg, po administered as single dose. It is filed as ADME, organism-based. Also noted: dose 2 mg/kg, route oral. The following applies: in vivo.
A short description of series [6]: Oral bioavailability in rat at 2 mg/kg administered as single dose. The class given is ADME, organism-based. The conditions noted are these: in vivo.
Series [7] in a line: Cmax in rat at 2 mg/kg, iv administered as single dose. The class given is ADME, organism-based. More on the design: dose 2 mg/kg, route intravenous. The following applies: in vivo.
A short description of series [8]: Tmax in rat at 2 mg/kg, po administered as single dose. It is filed as ADME, organism-based. Also noted: dose 2 mg/kg, route oral. The following applies: in vivo.
Series [9] can be described thus: AUC in rat at 2 mg/kg, po administered as single dose. It is filed as ADME, organism-based. Also noted: dose 2 mg/kg, route oral. The following applies: plasma.
Series [10] can be described thus: AUC in rat at 2 mg/kg, iv administered as single dose. The following applies: plasma. More on the design: dose 2 mg/kg, route intravenous. It is filed as ADME, organism-based.
Another series is filed under the species Canis familiaris. Briefly: Clearance in dog. It is filed as ADME, organism-based, Canis lupus familiaris. The following applies: in vivo.
The nature of series [11]: Half life in dog. The class given is ADME, organism-based, Canis lupus familiaris. The following applies: in vivo.
A short description of series [12]: Half life in rat at 2 mg/kg, po administered as single dose. The conditions noted are these: in vivo. Also noted: dose 2 mg/kg, route oral. The class given is ADME, organism-based.
Series [13] can be described thus: Apparent permeability from apical to basolateral side of human Caco-2 cells. The class given is ADME, cell-based. In general terms: Caco-2 monolayers are a common model of the intestinal barrier.
For another series, the target named is P2X purinoceptor 5 (Homo sapiens, UniProt Q93086). The series is described as follows: Antagonist activity at P2X5 receptor up to 10 uM. The class given is functional.
Chain of P2X purinoceptor 5 (Q93086 whole entry): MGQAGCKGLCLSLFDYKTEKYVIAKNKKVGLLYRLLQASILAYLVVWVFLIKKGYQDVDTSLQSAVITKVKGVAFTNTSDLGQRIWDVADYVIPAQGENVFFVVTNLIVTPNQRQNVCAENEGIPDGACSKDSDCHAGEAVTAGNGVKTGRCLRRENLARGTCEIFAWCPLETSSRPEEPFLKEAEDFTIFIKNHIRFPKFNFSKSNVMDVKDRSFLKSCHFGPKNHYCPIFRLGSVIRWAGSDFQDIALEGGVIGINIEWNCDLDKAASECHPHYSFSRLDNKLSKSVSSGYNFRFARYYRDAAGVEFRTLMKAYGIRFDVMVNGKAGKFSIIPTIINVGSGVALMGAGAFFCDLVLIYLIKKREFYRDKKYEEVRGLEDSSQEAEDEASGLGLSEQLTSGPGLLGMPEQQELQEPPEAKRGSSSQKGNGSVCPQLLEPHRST

As for `COc1cc(C(C)C)c(Oc2cnc(NC3CCN(S(C)(=O)=O)CC3)nc2N)cc1I`, the IC50 at P2X purinoceptor 3 was 100 nM; in [1], 316 nM.

The bioavailability is dose-corrected exposure relative to a reference, in per cent. A high value points to much systemic uptake. The term clearance denotes the rate of elimination divided by the concentration. Read a low clearance as inefficient removal. The term pIC50 denotes −log10 of the IC50, conventionally taken in molar units. As usually defined, the Tmax is the time from dosing to the highest level. In general, half-life refers to the time needed for the level to fall by half in the phase considered. The Cmax is the maximum level reached in the sampled fluid or tissue. A word on the AUC: it is the area under the concentration-time curve, a measure of exposure. Read a high AUC as more exposure. On to `COc1cc(C(C)C)c(Oc2cnc(N)nc2N)cc1I`, for which the bioavailability in series [2] was 72%; in series [6] it was 39%. The clearance in the series with Rattus norvegicus was determined as 52.8 mL/min/kg; in the series listed under Canis familiaris, 13 mL/min/kg. The figures for the negative logarithm of the IC50 (pIC50) (at P2X purinoceptor 3 (read-out: IC50); in series [1] (read-out: IC50)) were 7.89 and 7.60, respectively. Moreover, the values for the Tmax in [3] and in series [8] were 0.083 h and 1.33 h, respectively. In addition, the results for the half-life in [4], in [11] and in [12] were 0.94 h, 1.5 h and 2.09 h, respectively. Also, the Cmax in series [5] was determined as 64.3 ng/mL; in series [7], 589 ng/mL. The AUC in [9] is 240 ng·h/mL; in series [10], 628 ng·h/mL. In addition, the IC50 in series [1] was 39.8 nM.

Regarding `COc1cc(C(C)C)c(Oc2cnc(NCC(F)(F)F)nc2N)cc1I`, the IC50 at P2X purinoceptor 3 is 79.4 nM; in series [1], 200 nM.

For the compound `COc1cc(C(C)C)c(Oc2cnc(NCCO)nc2N)cc1I`, the IC50 in [1] was 15.8 nM.

As for `COc1cc(C(C)C)c(Oc2cnc(NCCN3CCOCC3)nc2N)cc1I`, the IC50 at P2X purinoceptor 3 was 158 nM; in [1] it was 398 nM.

`COc1cc(C(C)C)c(Oc2cnc(N(C)C)nc2N)cc1I`: the IC50 (on P2X purinoceptor 3; in series [1]) was over 10000 nM each time.

`COc1cc(C(C)C)c(Oc2cnc(NCCN(C)C)nc2N)cc1I`: the figures for the IC50 (at P2X purinoceptor 3; in series [1]) were 158 nM and 251 nM, respectively.

As for `COc1cc(C(C)C)c(Oc2cnc(NC(C)(C)CO)nc2N)cc1I`, the IC50 in [1] is 794 nM.

By Papp A→B is commonly meant the apparent permeability from the apical to the basolateral side of a cell layer. Turning to `COc1cc(C(C)C)c(Oc2cnc(NC(CO)CO)nc2N)cc1I`, the Papp A→B in series [13] came to 9.43 ×10⁻⁶ cm/s. For the same compound, the negative logarithm of the IC50 (pIC50) against P2X purinoceptor 5 is under 5.00. In addition, the bioavailability in series [2] is 79%; in series [6], 48%. In addition, the results for the clearance in the series with Rattus norvegicus and in the series filed under Canis familiaris were 71.9 mL/min/kg and 4.65 mL/min/kg, respectively. Besides, the results for the Tmax in series [3] and in series [8] were 0.167 h and 0.833 h, respectively. Also, the half-life in [4] is 1.07 h; in series [11], 3.88 h; in [12] it was 1.52 h. In addition, the Cmax amounted to 104 ng/mL in series [5] and 554 ng/mL in [7]. Besides, the results for the area under the curve (AUC) in [9] and in [10] were 237 ng·h/mL and 495 ng·h/mL, respectively.

The values above are taken from ChEMBL document CHEMBL1153300, “Identification and SAR of novel diaminopyrimidines. Part 2: The discovery of RO-51, a potent and selective, dual P2X(3)/P2X(2/3) antagonist for the treatment of pain” (Bioorg Med Chem Lett, 2009).
